What all share (assay): Live cell target engagement (NanoBRET) in HEK293 cells
Common to all, as to assay type: cell-based

For one assay, the target named is AKT1 E17K (Homo sapiens (Human), UniProt P31749, E17K). The following applies: for IC50: HEK293, 2 hours at 37° C.
The target of the next assay is AKT1 WT (Homo sapiens (Human), UniProt P31749). The following applies: HEK293, 2 hours at 37° C.
Another assay addresses AKT2 (Homo sapiens (Human), UniProt P31751). As to conditions: HEK293, 2 hours at 37° C.

A value given as a limit tells only on which side of the number the result lay.

Chain of AKT1 E17K (P31749 whole entry E17K): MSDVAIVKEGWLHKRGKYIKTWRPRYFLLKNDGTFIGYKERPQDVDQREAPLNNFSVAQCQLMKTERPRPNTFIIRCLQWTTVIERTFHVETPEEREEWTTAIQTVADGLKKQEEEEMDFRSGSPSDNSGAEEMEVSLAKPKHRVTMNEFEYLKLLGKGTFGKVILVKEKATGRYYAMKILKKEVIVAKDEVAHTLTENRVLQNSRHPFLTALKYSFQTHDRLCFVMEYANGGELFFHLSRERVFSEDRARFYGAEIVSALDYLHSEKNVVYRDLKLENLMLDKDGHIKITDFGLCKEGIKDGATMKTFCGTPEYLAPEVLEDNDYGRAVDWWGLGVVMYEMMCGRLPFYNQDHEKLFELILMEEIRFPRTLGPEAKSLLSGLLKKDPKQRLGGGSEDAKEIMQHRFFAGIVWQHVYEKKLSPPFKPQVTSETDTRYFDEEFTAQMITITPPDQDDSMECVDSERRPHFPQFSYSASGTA
Chain of AKT2 (P31751 whole entry): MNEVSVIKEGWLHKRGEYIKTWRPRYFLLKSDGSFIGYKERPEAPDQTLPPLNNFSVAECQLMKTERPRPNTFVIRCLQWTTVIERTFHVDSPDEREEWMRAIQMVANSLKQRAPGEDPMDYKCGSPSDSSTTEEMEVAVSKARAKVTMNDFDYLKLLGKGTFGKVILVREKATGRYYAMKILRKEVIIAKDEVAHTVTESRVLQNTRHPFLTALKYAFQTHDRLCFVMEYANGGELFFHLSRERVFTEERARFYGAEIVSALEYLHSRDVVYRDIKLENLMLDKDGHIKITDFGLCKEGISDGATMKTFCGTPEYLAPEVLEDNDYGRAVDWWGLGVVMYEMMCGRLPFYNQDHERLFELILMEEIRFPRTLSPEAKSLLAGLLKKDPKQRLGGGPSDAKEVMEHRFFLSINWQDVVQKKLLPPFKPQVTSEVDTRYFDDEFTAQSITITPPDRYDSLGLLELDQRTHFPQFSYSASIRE
Chain of AKT1 WT (P31749 whole entry): as the sequence (P31749 whole entry E17K) above, with K17E counted along it

As for `Nc1ncccc1-c1nc2ccc(-c3cccnc3)nc2n1-c1ccc(CNC(=O)C2(c3ccc(C=O)c(O)c3)CC2)cc1` [Compound 70, N-({4-[2-(2-aminopyridin-3-yl)-5-(pyridin-3-yl)imidazo[4,5-b]pyridin-3-yl]phenyl}methyl)-1-(4-formyl-3-hydroxyphenyl)cyclopropane-1-carboxamide], at AKT1 E17K, the “AKT1 E17K IC50: Selectivity vs AKT1 WT” value is recorded as 7.7, the “AKT1 E17K IC50: Selectivity vs AKT2” value stood at 65 and the IC50 was less than 100 nM. The compound further registered an IC50 on AKT1 WT of 100 to 500 nM. Moreover, on AKT2, the IC50 is more than 500 nM.

With `Nc1ncccc1-c1nc2ccc(-c3ccccc3)nc2n1-c1ccc(CCNC(=O)c2ccc(C=O)c(O)c2)cc1` [Compound 111, N-(2-{4-[2-(2-aminopyridin-3-yl)-5-phenylimidazo[4,5-b]pyridin-3-yl]phenyl}ethyl)-4-formyl-3-hydroxybenzamide], on AKT1 E17K, the “AKT1 E17K IC50: Selectivity vs AKT1 WT” value is on record as 0.83, the “AKT1 E17K IC50: Selectivity vs AKT2” value was 6.3 and the IC50 is less than 100 nM. Further, the IC50 on AKT1 WT was less than 100 nM. Besides, on AKT2, the IC50 fell in the range of 100 to 500 nM.

`CC(NC(=O)Cc1ccc(C=O)c(O)c1)c1ccc(-n2c(-c3cccnc3N)nc3ccc(-c4ccccc4)nc32)cc1` (stereo not drawn) [Compound 116, N-(1-{4-[2-(2-aminopyridin-3-yl)-5-phenylimidazo[4,5-b]pyridin-3-yl]phenyl}ethyl)-2-(4-formyl-3-hydroxyphenyl)acetamide]: the “AKT1 E17K IC50: Selectivity vs AKT1 WT” value on AKT1 E17K turned out to be 1.9. The “AKT1 E17K IC50: Selectivity vs AKT2” value on AKT1 E17K was found to be 10. The IC50 against AKT1 E17K is less than 100 nM; against AKT1 WT it was less than 100 nM; against AKT2, 100 to 500 nM.

Turning to `Nc1ncccc1-c1nc2ccc(-c3ccccc3)nc2n1-c1ccc(NC(=O)CCc2ccc(C=O)c(O)c2)cc1` [Compound 118, N-(4-(2-(2-aminopyridin-3-yl)-5-phenyl-3H-imidazo[4,5-b]pyridin-3-yl)phenyl)-3-(4-formyl-3-hydroxyphenyl)propanamide], at AKT1 E17K, the “AKT1 E17K IC50: Selectivity vs AKT1 WT” value is 1.6, the “AKT1 E17K IC50: Selectivity vs AKT2” value is 29 and the IC50 is less than 100 nM. Besides, the IC50 at AKT1 WT is less than 100 nM. In addition, the 50% inhibitory concentration (IC50) against AKT2 was in the range of 100 to 500 nM.

With `Nc1ncccc1-c1nc2ccc(-c3ccccc3)nc2n1-c1ccc(CNCCc2ccc(C=O)c(O)c2Cl)cc1` [Compound 120, 4-{2-[({4-[2-(2-aminopyridin-3-yl)-5-phenylimidazo[4,5-b]pyridin-3-yl]phenyl}methyl)amino]ethyl}-3-chloro-2-hydroxybenzaldehyde], at AKT1 E17K, the “AKT1 E17K IC50: Selectivity vs AKT1 WT” value came to 0.86, the “AKT1 E17K IC50: Selectivity vs AKT2” value stood at 2.3 and the IC50 is less than 100 nM. In addition, the IC50 on AKT1 WT is less than 100 nM. The compound further gave an IC50 on AKT2 of 100 to 500 nM.

Turning to `Nc1ncccc1-c1nc2cccnc2n1-c1ccc(CNC(=O)Cc2ccc(C=O)c(O)c2F)cc1` [Compound 93, N-({4-[2-(2-aminopyridin-3-yl)imidazo[4,5-b]pyridin-3-yl]phenyl}methyl)-2-(2-fluoro-4-formyl-3-hydroxyphenyl)acetamide], at AKT1 E17K, the “AKT1 E17K IC50: Selectivity vs AKT1 WT” value was 3.9, the “AKT1 E17K IC50: Selectivity vs AKT2” value is reported as 50 and the IC50 is less than 100 nM. Also, the IC50 against AKT1 WT fell in the range of 100 to 500 nM. The IC50 at AKT2 was more than 500 nM.

For `CC(=O)Nc1cccc(-c2ccc3nc(-c4cccnc4N)n(-c4ccc(CNC(=O)Cc5ccc(C=O)c(O)c5)cc4)c3n2)c1` [Example 2, N-(4-(5-(3-acetamidophenyl)-2-(2-aminopyridin-3-yl)-3H-imidazo[4,5-b]pyridin-3-yl)benzyl)-2-(4-formyl-3-hydroxyphenyl)acetamide], the “AKT1 E17K IC50: Selectivity vs AKT1 WT” value at AKT1 E17K stood at 3.1. For the same compound, the “AKT1 E17K IC50: Selectivity vs AKT2” value on AKT1 E17K worked out at 19. Moreover, the IC50 against AKT1 E17K was less than 100 nM; against AKT1 WT it was 100 to 500 nM; against AKT2 it was more than 500 nM.

Regarding `Nc1ncccc1-c1nc2cc(-c3ccccc3)cnc2n1-c1ccc(CNCCc2ccc(C=O)c(O)c2)cc1` [Compound 124, 4-(2-((4-(2-(2-aminopyridin-3-yl)-6-phenyl-3H-imidazo[4,5-b]pyridin-3-yl)benzyl)amino)ethyl)-2-hydroxybenzaldehyde], at AKT1 E17K, the “AKT1 E17K IC50: Selectivity vs AKT1 WT” value is 3.1, the “AKT1 E17K IC50: Selectivity vs AKT2” value is listed as 13 and the IC50 lay in the range of 100 to 500 nM. Further, the IC50 on AKT1 WT was more than 500 nM. In addition, at AKT2, the IC50 is more than 500 nM.

As for `Nc1ncccc1-c1nc2ccc(-c3cccnc3)nc2n1-c1ccc(CNC(=O)C2(c3ccc(C=O)c(O)c3F)CC2)cc1` [Compound 67, N-(4-(2-(2-aminopyridin-3-yl)-5-(pyridin-3-yl)-3H-imidazo[4,5-b]pyridin-3-yl)benzyl)-1-(2-fluoro-4-formyl-3-hydroxyphenyl)cyclopropane-1-carboxamide], on AKT1 E17K, the “AKT1 E17K IC50: Selectivity vs AKT1 WT” value is on record as 27, the “AKT1 E17K IC50: Selectivity vs AKT2” value is reported as more than 240 and the IC50 is less than 100 nM. Moreover, the IC50 against AKT1 WT is more than 500 nM. In addition, the IC50 against AKT2 is more than 500 nM.

On to `Nc1ncccc1-c1nc2ccc(-c3ccccc3)nc2n1-c1ccc(C(=O)NCCc2ccc(C=O)c(O)c2)cc1` [Compound 131, 4-(2-(2-aminopyridin-3-yl)-5-phenyl-3H-imidazo[4,5-b]pyridin-3-yl)-N-(4-formyl-3-hydroxyphenethyl)benzamide], for which the “AKT1 E17K IC50: Selectivity vs AKT1 WT” value on AKT1 E17K is 1.6. Besides, on AKT1 E17K, the “AKT1 E17K IC50: Selectivity vs AKT2” value is reported as 13. The IC50 against AKT1 E17K was less than 100 nM; against AKT1 WT it was less than 100 nM; on AKT2, 100 to 500 nM.

Consider `Nc1ncccc1-c1nc2ccc(-c3cccnc3)nc2n1-c1ccc(CNCCc2ccc(C=O)c(O)c2)cc1` [Compound 113, 4-(2-((4-(2-(2-aminopyridin-3-yl)-5-(pyridin-3-yl)-3H-imidazo[4,5-b]pyridin-3-yl)benzyl)amino)ethyl)-2-hydroxybenzaldehyde], for which, at AKT1 E17K, the “AKT1 E17K IC50: Selectivity vs AKT1 WT” value was 2.5, the “AKT1 E17K IC50: Selectivity vs AKT2” value is 57 and the IC50 was less than 100 nM. This compound also gave an IC50 at AKT1 WT of 100 to 500 nM. The compound further displayed an IC50 against AKT2 of more than 500 nM.

In the case of `Nc1ncccc1-c1nc2ccc(-c3ccccc3)nc2n1-c1ccc(C(CO)NC(=O)Cc2ccc(C=O)c(O)c2F)cc1` (stereo not drawn) [Compound 30, N-(1-(4-(2-(2-aminopyridin-3-yl)-5-phenyl-3H-imidazo[4,5-b]pyridin-3-yl)phenyl)-2-hydroxyethyl)-2-(2-fluoro-4-formyl-3-hydroxyphenyl)acetamide], on AKT1 E17K, the “AKT1 E17K IC50: Selectivity vs AKT1 WT” value was 1.9, the “AKT1 E17K IC50: Selectivity vs AKT2” value was 6.2 and the IC50 is less than 100 nM. The IC50 against AKT1 WT fell in the range of 100 to 500 nM. This compound registered an IC50 against AKT2 of more than 500 nM.

Take `CC(=O)Nc1c(C=O)ccc(CCNCc2ccc(-n3c(-c4cccnc4N)nc4cccnc43)cc2)c1F` [Compound 89, N-(3-{2-[({4-[2-(2-aminopyridin-3-yl)imidazo[4,5-b]pyridin-3-yl]phenyl}methyl)amino]ethyl}-2-fluoro-6-formylphenyl)acetamide]: the “AKT1 E17K IC50: Selectivity vs AKT1 WT” value at AKT1 E17K is 0.14. Besides, the “AKT1 E17K IC50: Selectivity vs AKT2” value on AKT1 E17K amounted to 2.1. Also, the figures for the IC50 against AKT1 E17K, against AKT1 WT and at AKT2 were more than 500 nM, 100 to 500 nM and more than 500 nM, respectively.

In the case of `CC(=O)Nc1cccc(-c2ccc3nc(-c4cccnc4N)n(-c4ccc(CNCCc5ccc(C=O)c(O)c5)cc4)c3n2)c1` [Compound 121, N-{3-[2-(2-aminopyridin-3-yl)-3-[4-({[2-(4-formyl-3-hydroxyphenyl)ethyl]amino}methyl)phenyl]imidazo[4,5-b]pyridin-5-yl]phenyl}acetamide], on AKT1 E17K, the “AKT1 E17K IC50: Selectivity vs AKT1 WT” value is recorded as 2, the “AKT1 E17K IC50: Selectivity vs AKT2” value is 6.2 and the IC50 was less than 100 nM. In addition, the IC50 against AKT1 WT was less than 100 nM. The same compound showed an IC50 on AKT2 of 100 to 500 nM.

Take `Nc1ncccc1-c1nc2ccc(Cl)nc2n1-c1ccc(CNCCc2ccc(C=O)c(O)c2)cc1` [Compound 99, 4-{2-[({4-[2-(2-aminopyridin-3-yl)-5-chloroimidazo[4,5-b]pyridin-3-yl]phenyl}methyl)amino]ethyl}-2-hydroxybenzaldehyde]: on AKT1 E17K, the “AKT1 E17K IC50: Selectivity vs AKT1 WT” value came to 3.7, the “AKT1 E17K IC50: Selectivity vs AKT2” value is on record as 8.4 and the IC50 is less than 100 nM. This compound also gave a half-maximal inhibitory concentration (IC50) at AKT1 WT of 100 to 500 nM. The same compound yielded an IC50 against AKT2 of more than 500 nM.

`Nc1ncccc1-c1nc2ccc(-c3ccccc3)nc2n1-c1ccc(CNCCc2cc(O)c(C=O)cc2F)cc1` [Compound 128, 4-(2-((4-(2-(2-aminopyridin-3-yl)-5-phenyl-3H-imidazo[4,5-b]pyridin-3-yl)benzyl)amino)ethyl)-5-fluoro-2-hydroxybenzaldehyde]: on AKT1 E17K, the “AKT1 E17K IC50: Selectivity vs AKT1 WT” value is recorded as 0.15, the “AKT1 E17K IC50: Selectivity vs AKT2” value is 0.93 and the IC50 was in the range of 100 to 500 nM. At AKT1 WT, the IC50 was less than 100 nM. Further, on AKT2, the IC50 was 100 to 500 nM.

For `Nc1ncccc1-c1nc2cccnc2n1-c1ccc(CNC(=O)c2cnc(O)c(C=O)c2)cc1` [Compound 46, N-(4-(2-(2-aminopyridin-3-yl)-3H-imidazo[4,5-b]pyridin-3-yl)benzyl)-5-formyl-6-hydroxynicotinamide], the IC50 on AKT1 E17K, at AKT1 WT and on AKT2 was more than 500 nM in each case.

For `CC(C)(C)c1cc(C(=O)NCc2ccc(-n3c(-c4cccnc4N)nc4ccc(-c5ccccc5)nc43)cc2)cc(C=O)c1O` [Compound 41, N-(4-(2-(2-aminopyridin-3-yl)-5-phenyl-3H-imidazo[4,5-b]pyridin-3-yl)benzyl)-3-(tert-butyl)-5-formyl-4-hydroxybenzamide], on AKT1 E17K, the “AKT1 E17K IC50: Selectivity vs AKT1 WT” value is listed as 0.24, the “AKT1 E17K IC50: Selectivity vs AKT2” value is 0.77 and the half-inhibitory concentration (IC50) was more than 500 nM. The IC50 at AKT1 WT is more than 500 nM. This compound also registered an IC50 against AKT2 of more than 500 nM.

With `Nc1ncccc1-c1nc2ccc(-c3ccccn3)nc2n1-c1ccc(CNC(=O)Cc2ccc(C=O)c(O)c2)cc1` [Compound 62, N-({4-[2-(2-aminopyridin-3-yl)-5-(pyridin-2-yl)imidazo[4,5-b]pyridin-3-yl]phenyl}methyl)-2-(4-formyl-3-hydroxyphenyl)acetamide], at AKT1 E17K, the “AKT1 E17K IC50: Selectivity vs AKT1 WT” value is 2.7, the “AKT1 E17K IC50: Selectivity vs AKT2” value was found to be 47 and the IC50 was less than 100 nM. The same compound came in with an IC50 on AKT1 WT of less than 100 nM. On AKT2, this compound yielded an IC50 of more than 500 nM.
